Measurements taken from the PolyMetriX glass transition set.
± gives the standard deviation of the reports.

SMILES	glass transition temperature [°C]
*c1ccc(Cc2ccccc2-n2c(=O)c3cc4c(=O)n(*)c(=O)c4cc3c2=O)cc1 (repeat unit)	356.50
*CCCCCCOC(=O)NCC(F)(F)C(F)(F)C(F)(F)C(F)(F)CNC(=O)O* (repeat unit)	5.00
*CC(CCCC)C(CCCC)COC(=O)c1ccc(C(=O)O*)cc1 (repeat unit)	16.00
*c1cc(-c2sc(-c3cc(CCCC)c(*)s3)cc2CCCC)c2cccccc1-2 (repeat unit)	124.00
*Oc1cc(Cl)cc(Cl)c1* (repeat unit)	165.00
*CCCCOC(=O)CCCCCNC(=O)CCCCC(=O)NCCCCCC(=O)O* (repeat unit)	-15.00
*CCc1ccc(*)c(CC)c1 (repeat unit)	25.00
*/C=C/CC(C*)c1ccccc1 (repeat unit)	14.00
*O[Si](C)(C)CCCCCC[Si](*)(C)C (repeat unit)	-90.00
*CC(*)C(=O)OC1CCCCC1 (repeat unit) [Poly(cyclohexyl acrylate)]	20.42 ± 6.5
*CC(*)(C)C(=O)OCCCCCCCC (repeat unit)	-11.00
*CC(C)(C)C1C(=O)N(C)C(=O)C1* (repeat unit)	156.50
*c1ccc(NC(=O)CCCCC(=O)Nc2ccc(S(*)(=O)=O)cc2)cc1 (repeat unit)	194.00
*C1C(=O)N(CCCCCOc2ccc(-c3ccc(C#N)cc3)cc2)C(=O)C1* (repeat unit)	75.00
*Oc1ccc(NC(=O)CCCCC(=O)Nc2ccc(OC3COC4C(*)COC34)cc2)cc1 (repeat unit)	150.00
*Oc1cc(OC(=O)c2ccc(OCC)cc2)c(OC(=O)CCCCCCCCCCCCCCC(*)=O)cc1OC(=O)c1ccc(OCC)cc1 (repeat unit)	31.00
*CCOC(=O)NNC(=O)CCCCCCCCC(=O)NNC(=O)O* (repeat unit)	63.00
*Oc1c(Cl)cc(C2(c3cc(Cl)c(OC(*)=O)c(Cl)c3)CC3CCC2C3)cc1Cl (repeat unit)	290.00
*CC(CO*)(CSCCCCC)CSCCCCC (repeat unit)	-33.00
*CC1CCC(COP(=O)(/N=N/c2ccc(-c3ccc(/N=N/P(=O)(O*)OC)cc3)cc2)OC)CC1 (repeat unit)	58.00
*Nc1ccc(C(c2ccc(NC(=O)c3ccc(-c4ccc(C(*)=O)cc4)cc3)cc2)(P2(=O)Oc3ccccc3-c3ccccc32)P2(=O)Oc3ccccc3-c3ccccc32)cc1 (repeat unit)	251.00
*c1cc(C(=O)OCCCCC)cc(N2C(=O)CC(C3Cc4ccccc4C4C(=O)N(*)C(=O)C43)C2=O)c1 (repeat unit)	219.00
*CC(*)n1c2ccccc2c2c3ccccc3ccc21 (repeat unit)	291.50
*Oc1ccc(C(C)(C)c2ccc(OC(=O)OC3C(C)(C)C(OC(*)=O)C3(C)C)cc2)cc1 (repeat unit)	130.00

Now from value to compound:

glass transition temperature [°C]	SMILES
246.00	*c1cccc(Cc2cccc(N3C(=O)c4ccc([Si](C)(C)c5ccc([Si](C)(C)c6ccc7c(c6)C(=O)N(*)C7=O)cc5)cc4C3=O)c2)c1 (repeat unit)
223.00	*c1ccc(Oc2ccc(C(c3ccc(Oc4ccc(N5C(=O)c6ccc(-c7ccc8c(c7)C(=O)N(*)C8=O)cc6C5=O)cc4C(F)(F)F)cc3)(C(F)(F)F)C(F)(F)F)cc2)c(C(F)(F)F)c1 (repeat unit)
270.00	*c1ccc(Oc2ccc(NC(=O)c3cc(NC(=O)c4ccc(OC(C)=O)cc4)cc(C(=O)Nc4ccc(Oc5ccc(-c6nnc(*)o6)cc5)cc4)c3)cc2)cc1 (repeat unit)
276.00	*C(=O)Nc1ccc(Oc2cccc3c(NC(=O)c4ccc5c(c4)C(=O)N(c4ccc(Oc6cccc7c(N8C(=O)c9ccc(*)cc9C8=O)cccc67)cc4)C5=O)cccc23)cc1 (repeat unit)
59.00	*c1ccc(C(=O)OCCCCCCCCOc2ccc(/C=C/C(=O)/C=C/c3ccc(OCCCCCCCCOC(=O)c4ccc(-c5nnc(*)o5)cc4)cc3)cc2)cc1 (repeat unit)
208.00	*c1ccc(Oc2ccc(C(=O)c3cccc(C(=O)c4ccc(Oc5ccc(N6C(=O)c7ccc(Oc8ccc9c(c8)C(=O)N(*)C9=O)cc7C6=O)cc5)cc4)c3)cc2)cc1 (repeat unit)
311.00	*Oc1ccc(S(=O)(=O)c2ccc(-c3ccc(-c4ccc(S(=O)(=O)c5ccc(*)cc5)cc4)cc3)cc2)cc1 (repeat unit)
160.00	*Oc1ccc(/N=N/c2ccc(Cc3ccc(/N=N/c4ccc(OC(=O)c5ccc(/N=N/c6ccc(C(*)=O)cc6)cc5)cc4)cc3[N+](=O)[O-])c([N+](=O)[O-])c2)cc1 (repeat unit)
200.00	*Oc1ccc(C2(C)CCC(C(C)(C)c3ccc(Oc4ccc(C(=O)c5ccc(*)cc5)cc4)cc3)CC2)cc1 (repeat unit)
246.00	*c1ccc2c(c1)C(=O)N(c1cc(OCCCC)cc(N3C(=O)c4ccc(C(*)(C(F)(F)F)C(F)(F)F)cc4C3=O)c1)C2=O (repeat unit)
272.00	*c1ccc(NC(=O)Nc2ccc(NC(=O)Nc3ccc(-c4nc(-c5ccc(-c6nc(-c7ccc([N+](=O)[O-])cc7)c(-c7ccc([N+](=O)[O-])cc7)[nH]6)cc5)[nH]c4*)cc3)cc2)cc1 (repeat unit)
134.00	*Cc1ccc(C(C)(C)c2ccc(CN3C(=O)c4ccc(C(c5ccc6c(c5)C(=O)N(*)C6=O)(C(F)(F)F)C(F)(F)F)cc4C3=O)o2)o1 (repeat unit)
260.00	*Oc1ccc(NC(=O)c2cc(C(c3ccc(C(=O)O)c(C(=O)Nc4ccc(Oc5ccc(C(c6ccc(*)cc6)(C(F)(F)F)C(F)(F)F)cc5)cc4)c3)(C(F)(F)F)C(F)(F)F)ccc2C(=O)O)cc1 (repeat unit)
217.00	*c1ccc(Oc2ccc(-c3ccc(Oc4ccc(N5C(=O)c6ccc(Oc7ccc(C(c8ccc(Oc9ccc%10c(c9)C(=O)N(*)C%10=O)cc8)(C(F)(F)F)C(F)(F)F)cc7)cc6C5=O)cc4)cc3)cc2)cc1 (repeat unit)
59.00	*c1ccc(C(=O)OCCCCCCCCOc2ccc(/C=C3\CCC/C(=C\c4ccc(OCCCCCCCCOC(=O)c5ccc(-c6nnc(*)o6)cc5)cc4)C3=O)cc2)cc1 (repeat unit)
60.00	*CCCOCCCCOCCCN1C(=O)c2ccc(C(=O)Oc3ccc(C(C)(C)c4ccc(OC(=O)c5ccc6c(c5)C(=O)N(*)C6=O)cc4)cc3)cc2C1=O (repeat unit)
105.00	*CCOCCOCCN1C(=O)c2ccc(C(=O)Oc3ccc(OC(=O)c4ccc5c(c4)C(=O)N(*)C5=O)cc3)cc2C1=O (repeat unit)
245.00	*c1ccc(Oc2ccc(S(=O)(=O)c3ccc(Oc4ccc(C5(*)OC(=O)c6ccccc65)cc4C)cc3)cc2)c(C)c1 (repeat unit)
222.00	*C(=O)Oc1ccc(C2(c3ccc(OC(=O)c4ccc5c(c4)C(=O)N(c4ccc(-c6ccc(N7C(=O)c8ccc(*)cc8C7=O)cc6C)c(C)c4)C5=O)cc3)C3CC4CC(C3)CC2C4)cc1 (repeat unit)
